Data taken from patent publication EP2526935A1, “Hydrazidomycins” (Oncotest GmbH, priority 2011, dated 2012).

Legend:
Type in all cases: cell-based
[1] = system: panel of 12 human tumor cell lines; assay: modified propidium iodide cytotoxicity assay, panel of 12 human tumor cell lines; details: for IC50: geometric mean over panel of 12 human tumor cell lines, read-out: Cytotoxic potency (geometric mean IC50)
From the text: (§1) Antiproliferative and cytotoxic assays. A modified propidium iodide assay was used to determine the cytotoxic activity of compounds hydrazidomycin A, B, and C against 12 to 42 cell lines derived from solid human tumors. The test procedure has been as is known in the art. Cell lines tested were derived from patient tumors engrafted as a subcutaneously growing tumor in NMRI nu/nu mice, or obtained from the American Type Culture Collection, Rockville, MD, USA, National Cancer Institute, Bethesda, MD, USA, or Deutsche Sammlung von Mikroorganismen und Zellkulturen, Braunschweig. The IC50 was determined by four parameter non-linear curve fit after plotting compound concentration versus fluorescence intensity, and is given as the concentration of test compound that gives a response (inhibition of cell growth) half way between the top and bottom plateau of the sigmoidal concentration-response curve (i.e. the inflection point of the curve).

Bacillus subtilis = assay: antimicrobial activity test; details: at a concentration of 1.0 mg/mL
Mycobacerium vaccae = assay: antimicrobial activity test; details: at a concentration of 1.0 mg/mL
Pseudomonas aeruginosa = assay: antimicrobial activity test; details: at a concentration of 1.0 mg/mL
[2] = system: panel of 42 human tumor cell lines; assay: modified propidium iodide cytotoxicity assay, panel of 42 human tumor cell lines; details: for IC50: mean over panel of 42 tumor cell lines, 15 histotypes; for IC50 values in sensitive cell lines, fold lower than the mean IC50 of all cell lines tested: on average, sensitive cell lines versus all cell lines
From the text: as §1

HCT-116 = assay: modified propidium iodide cytotoxicity assay; details: Homo sapiens, Colon
From the text: as §1

NIH:OVCAR-3 = assay: modified propidium iodide cytotoxicity assay; details: Homo sapiens, Ovary
From the text: as §1

PXF 698L = assay: modified propidium iodide cytotoxicity assay; details: Homo sapiens, Mesothelioma
From the text: as §1

LXFL 529L = assay: modified propidium iodide cytotoxicity assay; details: Homo sapiens, Lung, non-small cell
From the text: as §1

CXF 269L = assay: modified propidium iodide cytotoxicity assay; details: Homo sapiens, Colon
From the text: as §1

RKO = assay: modified propidium iodide cytotoxicity assay; details: Homo sapiens, Colon
From the text: as §1

DU-145 = assay: modified propidium iodide cytotoxicity assay; details: Homo sapiens, Prostate
From the text: as §1

RXF 393NL = assay: modified propidium iodide cytotoxicity assay; details: Homo sapiens, Kidney
From the text: as §1

MAXF 401NL = assay: modified propidium iodide cytotoxicity assay; details: Homo sapiens, Breast
From the text: as §1

MEXF 1341L = assay: modified propidium iodide cytotoxicity assay; details: Homo sapiens, Melanoma
From the text: as §1

BXF 1352L = assay: modified propidium iodide cytotoxicity assay; details: Homo sapiens, Bladder
From the text: as §1

RXF 486L = assay: modified propidium iodide cytotoxicity assay; details: Homo sapiens, Kidney
From the text: as §1

LXFA 289L = assay: modified propidium iodide cytotoxicity assay; details: Homo sapiens, Lung, non-small cell
From the text: as §1

LXFA 526L = assay: modified propidium iodide cytotoxicity assay; details: Homo sapiens, Lung, non-small cell
From the text: as §1

PXF 1752L = assay: modified propidium iodide cytotoxicity assay; details: Homo sapiens, Mesothelioma
From the text: as §1

RXF 1781L = assay: modified propidium iodide cytotoxicity assay; details: Homo sapiens, Kidney
From the text: as §1

LXFL1121L = assay: modified propidium iodide cytotoxicity assay; details: Homo sapiens, LXFL 1121L, Lung, non-small cell
From the text: as §1

MKN45 = assay: modified propidium iodide cytotoxicity assay; details: Homo sapiens, MKN-45, Stomach
From the text: as §1

DIFI = assay: modified propidium iodide cytotoxicity assay; details: Homo sapiens, Colon
From the text: as §1

LXFA 629L = assay: modified propidium iodide cytotoxicity assay; details: Homo sapiens, Lung, non-small cell
From the text: as §1

LNCaP = assay: modified propidium iodide cytotoxicity assay; details: Homo sapiens, Prostate
From the text: as §1

PANC-1 = assay: modified propidium iodide cytotoxicity assay; details: Homo sapiens, Pancreas
From the text: as §1

PAXF 546L = assay: modified propidium iodide cytotoxicity assay; details: Homo sapiens, Pancreas
From the text: as §1

OVXF 899L = assay: modified propidium iodide cytotoxicity assay; details: Homo sapiens, Ovary
From the text: as §1

PXF 1118L = assay: modified propidium iodide cytotoxicity assay; details: Homo sapiens, Mesothelioma
From the text: as §1

HT-29 = assay: modified propidium iodide cytotoxicity assay; details: Homo sapiens, Colon
From the text: as §1

MCF-7 = assay: modified propidium iodide cytotoxicity assay; details: Homo sapiens, MCF7, Breast
From the text: as §1

CAL-27 = assay: modified propidium iodide cytotoxicity assay; details: Homo sapiens, Head and neck
From the text: as §1

GXF 251L = assay: modified propidium iodide cytotoxicity assay; details: Homo sapiens, Stomach
From the text: as §1

MDA-MB-231 = assay: modified propidium iodide cytotoxicity assay; details: Homo sapiens, Breast
From the text: as §1

PAXF 1657L = assay: modified propidium iodide cytotoxicity assay; details: Homo sapiens, Pancreas
From the text: as §1

MEXF 462NL = assay: modified propidium iodide cytotoxicity assay; details: Homo sapiens, Melanoma
From the text: as §1

TE671 = assay: modified propidium iodide cytotoxicity assay; details: Homo sapiens, TE-671, Sarcoma
From the text: as §1

NCI-H460 = assay: modified propidium iodide cytotoxicity assay; details: Homo sapiens, Lung, non-small cell
From the text: as §1

MEXF 276L = assay: modified propidium iodide cytotoxicity assay; details: Homo sapiens, MEXF276L, Melanoma
From the text: as §1

UXF 1138L = assay: modified propidium iodide cytotoxicity assay; details: Homo sapiens, Uterus
From the text: as §1

22Rv1 = assay: modified propidium iodide cytotoxicity assay; details: Homo sapiens, Prostate
From the text: as §1

Saos-2 = assay: modified propidium iodide cytotoxicity assay; details: Homo sapiens, Sarcoma
From the text: as §1

PC-3M = assay: modified propidium iodide cytotoxicity assay; details: Homo sapiens, Prostate
From the text: as §1

LIXF 575L = assay: modified propidium iodide cytotoxicity assay; details: Homo sapiens, Liver
From the text: as §1

BXF 1218L = assay: modified propidium iodide cytotoxicity assay; details: Homo sapiens, Bladder
From the text: as §1

Staphylococcus aureus = assay: antimicrobial activity test; details: at a concentration of 1.0 mg/mL
Escherichia coli = assay: antimicrobial activity test; details: at a concentration of 1.0 mg/mL
Enterococcus faecalis = assay: antimicrobial activity test; details: at a concentration of 1.0 mg/mL
T-24 = assay: modified propidium iodide cytotoxicity assay; details: Homo sapiens, Bladder
From the text: as §1

Compound: CCCCCCCCCCCC/C=C\N(NC(=O)COC)C(=O)CCCCCCCCC [Hydrazidomycin A, hydrazidomycin A]
- IC50 [1]: 0.37 µM
- antimicrobial activity (Bacillus subtilis): no antimicrobial activity
- antimicrobial activity (Mycobacerium vaccae): no antimicrobial activity
- antimicrobial activity (Pseudomonas aeruginosa): no antimicrobial activity
- IC50 ([2]; Homo sapiens): 0.86 µM
- IC50 ([2]; listed as (II)): 0.857 µM
- IC50 values in sensitive cell lines, fold lower than the mean IC50 of all cell lines tested [2]: about 4 fold
- IC50 (HCT-116): 0.758 µM
- IC50 (NIH:OVCAR-3): 1.1 µM
- IC50 (PXF 698L): 0.982 µM
- IC50 (LXFL 529L): 2.12 µM
- IC50 (CXF 269L): 0.222 µM
- IC50 (RKO): 0.598 µM
- IC50 (DU-145): 0.539 µM
- IC50 (RXF 393NL): 1.11 µM
- IC50 (MAXF 401NL): 0.471 µM
- IC50 (MEXF 1341L): 0.936 µM
- IC50 (BXF 1352L): 2.3 µM
- IC50 (RXF 486L): 1.62 µM
- IC50 (LXFA 289L): 1.1 µM
- IC50 (LXFA 526L): 1.65 µM
- IC50 (PXF 1752L): 1.19 µM
- IC50 (RXF 1781L): 0.982 µM
- IC50 (LXFL1121L): 2.31 µM
- IC50 (MKN45): 0.676 µM
- IC50 (DIFI): 0.782 µM
- IC50 (LXFA 629L): 0.247 µM
- IC50 (LNCaP): 0.957 µM
- IC50 (PANC-1): 0.933 µM
- IC50 (PAXF 546L): 0.66 µM
- IC50 (OVXF 899L): 1.34 µM
- IC50 (PXF 1118L): 2.4 µM
- IC50 (HT-29): 0.464 µM
- IC50 (MCF-7): 0.782 µM
- IC50 (CAL-27): 0.716 µM
- IC50 (GXF 251L): 0.144 µM
- IC50 (MDA-MB-231): 0.286 µM
- IC50 (PAXF 1657L): 1.91 µM
- IC50 (MEXF 462NL): 0.765 µM
- IC50 (TE671): 0.898 µM
- IC50 (NCI-H460): 2.31 µM
- IC50 (MEXF 276L): 1.59 µM
- IC50 (UXF 1138L): 0.893 µM
- IC50 (22Rv1): 0.882 µM
- IC50 (Saos-2): 1.82 µM
- IC50 (PC-3M): 0.105 µM
- IC50 (LIXF 575L): 0.349 µM
- IC50 (BXF 1218L): 2.43 µM
- antimicrobial activity (Staphylococcus aureus): no antimicrobial activity
- antimicrobial activity (Escherichia coli): no antimicrobial activity
- antimicrobial activity (Enterococcus faecalis): no antimicrobial activity

Compound: CCCCCCC/C=C\CCCCC/C=C\N(NC(=O)COC)C(=O)CCCCCCCCC [Hydrazidomycin B, hydrazidomycin B]
- IC50 [1]: 6.04 µM
- antimicrobial activity (Bacillus subtilis): no antimicrobial activity
- antimicrobial activity (Mycobacerium vaccae): no antimicrobial activity
- antimicrobial activity (Pseudomonas aeruginosa): no antimicrobial activity
- IC50 ([2]; Homo sapiens): 10.7 µM
- IC50 values in sensitive cell lines, fold lower than the mean IC50 of all cell lines tested [2]: ~8 fold
- IC50 (HCT-116): 19.4 µM
- IC50 (NIH:OVCAR-3): 18.5 µM
- IC50 (PXF 698L): 14.3 µM
- IC50 (LXFL 529L): 17.3 µM
- IC50 (CXF 269L): 5.94 µM
- IC50 (RKO): 13.8 µM
- IC50 (DU-145): 7.22 µM
- IC50 (RXF 393NL): 11 µM
- IC50 (MAXF 401NL): 0.876 µM
- IC50 (MEXF 1341L): 14.9 µM
- IC50 (BXF 1352L): 15.1 µM
- IC50 (RXF 486L): 21.2 µM
- IC50 (LXFA 289L): 12.6 µM
- IC50 (LXFA 526L): 7.07 µM
- IC50 (PXF 1752L): 12.7 µM
- IC50 (RXF 1781L): 10.2 µM
- IC50 (LXFL1121L): 17.4 µM
- IC50 (MKN45): 11.6 µM
- IC50 (DIFI): 10.2 µM
- IC50 (LXFA 629L): 1.41 µM
- IC50 (LNCaP): 14.1 µM
- IC50 (PANC-1): 10 µM
- IC50 (PAXF 546L): 10.8 µM
- IC50 (OVXF 899L): 19.1 µM
- IC50 (PXF 1118L): 30 µM
- IC50 (HT-29): 6.54 µM
- IC50 (MCF-7): 11 µM
- IC50 (CAL-27): 12.7 µM
- IC50 (GXF 251L): 1.54 µM
- IC50 (MDA-MB-231): 5.53 µM
- IC50 (PAXF 1657L): 20.4 µM
- IC50 (T-24): 9.19 µM
- IC50 (MEXF 462NL): 20.4 µM
- IC50 (TE671): 18.2 µM
- IC50 (NCI-H460): 17.2 µM
- IC50 (MEXF 276L): 18.3 µM
- IC50 (UXF 1138L): 18.2 µM
- IC50 (22Rv1): 15.6 µM
- IC50 (Saos-2): 18 µM
- IC50 (PC-3M): 1.73 µM
- IC50 (LIXF 575L): 7.39 µM
- IC50 (BXF 1218L): 19.3 µM
- antimicrobial activity (Staphylococcus aureus): no antimicrobial activity
- antimicrobial activity (Escherichia coli): no antimicrobial activity
- antimicrobial activity (Enterococcus faecalis): no antimicrobial activity

Compound: CCCCC/C=C\C/C=C\CCCC/C=C\N(NC(=O)COC)C(=O)CCCCCCCCC [Hydrazidomycin C, hydrazidomycin C]
- IC50 [1]: > 10 µM
- inhibition of tumor cell growth ([1]; up to a concentration of 10 µM): did not show inhibition of tumor cell growth
- antimicrobial activity (Bacillus subtilis): no antimicrobial activity
- antimicrobial activity (Mycobacerium vaccae): no antimicrobial activity
- antimicrobial activity (Pseudomonas aeruginosa): no antimicrobial activity
- antimicrobial activity (Staphylococcus aureus): no antimicrobial activity
- antimicrobial activity (Escherichia coli): no antimicrobial activity
- antimicrobial activity (Enterococcus faecalis): no antimicrobial activity
